Common to all, as to type: functional
In assay [1] the test system is Escherichia coli. The assay can be described thus: Antibacterial activity against rifampin resistant Escherichia coli RG488 receiving Klebsiella pneumoniae qnrS1 by agar dilution method. (In general: In agar dilution the substance is mixed into plates at graded concentrations.)
Assay [2] has as its system Escherichia coli. The assay can be described thus: Antibacterial activity against rifampin resistant Escherichia coli RG488 receiving Klebsiella pneumoniae qnrB4 by agar dilution method.
In assay [3] the test system is Escherichia coli. Kind of assay: Antibacterial activity against Escherichia coli RG488 by agar dilution method.
Assay [4] has as its system Escherichia coli. Kind of assay: Antibacterial activity against Escherichia coli J53 by agar dilution method.
Assay [5] concerns Escherichia coli. The assay can be described thus: Antibacterial activity against rifampin resistant Escherichia coli RG488 receiving Escherichia coli qnrB4 by agar dilution method.
In assay [6] the test system is Escherichia coli. Kind of assay: Antibacterial activity against rifampin resistant Escherichia coli RG488 receiving Klebsiella pneumoniae qnrB6 by agar dilution method.
The test system of assay [7] is Escherichia coli. The assay can be described thus: Antibacterial activity against rifampin resistant Escherichia coli RG488 receiving Enterobacter cloacae qnrB4 by agar dilution method.

Here are results for 2 molecules from ChEMBL document CHEMBL1275540, “Plasmid-mediated quinolone resistance determinants qnrA, qnrB, and qnrS among clinical isolates of Enterobacteriaceae in a Korean hospital” (2008).

Structures are written as SMILES. ≈ marks a conversion by molar mass, not a printed value.

As to `O=C(O)c1cn(C2CC2)c2cc(N3CCNCC3)c(F)cc2c1=O` [CIPROFLOXACIN], the MIC90 – broadly, the lowest concentration that inhibits either 90% of growth or 90% of the strains tested, depending on the study – stood at 1 µg/mL (≈ 3.02 µM) against Escherichia coli [1], 0.125 µg/mL (≈ 0.377 µM) in the assay with Escherichia coli [2], 0.03 µg/mL (≈ 0.0905 µM) against Escherichia coli [3] and 0.015 µg/mL (≈ 0.0453 µM) against Escherichia coli [4].
For `CCn1cc(C(=O)O)c(=O)c2ccc(C)nc21` [NALIDIXIC ACID], the MIC90 was determined as 16 µg/mL (≈ 68.9 µM) with Escherichia coli [5]; 32 µg/mL (≈ 138 µM) against Escherichia coli [1]; 8 µg/mL (≈ 34.4 µM) with Escherichia coli [2]; 4 µg/mL (≈ 17.2 µM) in the assay with Escherichia coli [3]; 16 µg/mL (≈ 68.9 µM) against Escherichia coli [6]; 4 µg/mL (≈ 17.2 µM) against Escherichia coli [4]. The molecule also showed an MIC90 in the assay with Escherichia coli [7] of 8 µg/mL (≈ 34.4 µM).
